# Measured values: patent US20260364072A1, “METHODS FOR PROMOTING EXPANSION OF HUMAN CD34+ CELLS IN VIVO AND FOR PROMOTING NEURAL REGENERATION” (THE REGENTS OF THE UNIVERSITY OF CALIFORNIA, priority 2023, published 2026)
# Where a name gives a salt, the structure may show the parent alone.
# Key:
# [1] = system: solid tumors; conditions: cited from earlier work
# [2] = system: MDA-MB-231 cells; assay: IVIS total flux in MDA-MB-231 transplanted mice; assay type: in vivo, human cells in Rag2 neonatal mice; conditions: 0 day after completing the dosing plan; compared to vehicle control
# From the text: FIG. 5 graphically illustrates IVIS (In Vivo Imaging System) results of ADAR1-MDA-MB-231 transplanted Rag2 mouse models, and IVIS images were taken at 6 weeks after transplant (FIG. 5A), after two weeks of therapy (FIG. 5B), and one week after therapy was completed (FIG. 5C), as discussed in further detail in Example 5, below.
# Ten thousand (10k) MDA-MB-231 cells were intrahepatically transplanted into Rag2 neonatal mice, then treated with fedratinib, rebecsinib, or a combination of fedratinib and rebecsinib. IVIS images were taken at 6 weeks after transplant (FIG. 5A), after two weeks of therapy (FIG. 5B), and one week after therapy was completed (FIG. 5C). The IVIS signals from the mice were graphed by groups.
# The IVIS images of these mice were taken at 0 day after completing the dosing plan and are graphed by their total flux.
# [3] = system: ADAR1 and MCL1 transcripts; assay: Comparative in vivo study with fedratinib; design: species or system human cells in mice; conditions: twice daily oral 60 mg/kg, two weeks
# Procedure: Additional aliquots of CD34+ cells from bone marrow and/or spleens of treated and control animals were used for serial transplantation assays after Rebecsinib treatment, including engraftment studies and overall survival assays. In a separate cohort of animals, mice were treated with Fedratinib for two weeks (twice daily oral delivery at 60 mg/kg) as a positive control for modulation of ADAR1 expression and activity.^8
# [4] = system: hematologic malignancies; conditions: Phase 1, cited from earlier work
compound,measurement,setting,value
CC[C@H](O)[C@@H](C)[C@H]1O[C@@H]1C[C@@](C)(O)/C=C/C=C(\C)[C@H]1OC(=O)C[C@H](O)CC[C@@](C)(O)[C@@H](OC(=O)N2CCN(C3CCCCCC3)CC2)/C=C/[C@@H]1C [E7107],reversible optic neuritis,[1]; patients with solid tumors,2 of 26
same,stability,[1]; related to optic neuritis,compound instability
"Cc1cnc(Nc2ccc(OCCN3CCCC3)cc2)nc1Nc1cccc(S(=O)(=O)NC(C)(C)C)c1 [fedratinib, N-tert-butyl-3-[(5-methyl2-{[4-(2-pyrrolidin-1-ylethoxy)phenyl]amino}pyrimidin-4-yl)amino]benzenesulfonamide dihydrochloride monohydrate]",total flux (IVIS),[2],significantly decreased
same,ADAR1 expression,[3],significantly reduced ADAR1 expression
same,MCL1 splicing,[3],no alteration of MCL1 splicing
H3B-8800,durable remissions,[4],not sufficiently potent to induce durable remissions
same,red blood transfusion independence,[4]; efficacy dependent on SRSF2 mutations,red blood transfusion independence in some patients
